Like-named read-outs stand apart in the source and are kept apart here.
Columns and labels:
psoriatic lesional skin = assay: Study-1 Part-B exploratory PD in subjects with mild-to-moderate psoriasis (lesion scores, lesional skin biopsies); assay type: in vivo, human; conditions: six subjects with psoriasis
Method: To enable assessment of target engagement, the following exploratory PD assessments were performed at various time points prior to and following study drug administration in those subjects with mild-to-moderate psoriasis. Size and appearance of the psoriatic lesion of interest (selected at screening) were assessed by lesion severity score and lesion area. Total affected area (percentage of BSA) and Physician’s Global Assessment were assessed to evaluate overall disease severity. Histological assessments of skin biopsies (6 mm) were performed by immunofluorescent microscopy of frozen sections of lesional skin, except for haematoxylin and eosin staining and IL-17 staining which were performed on formalin fixed paraffin embedded sections. Numbers of T cells (CD3), Langerhans cells (CD1a), neutrophils (MPO) and dermal dendritic cells (CD11c) were determined.  Fig. 3 Cellular responses in lesional biopsies. Lesional biopsies were taken on days 4 and 14 from each patient, and subsequently fixed, sectioned and, using immunofluorescence, stained for CD11c (dendritic cells), CD1a (Langerhans cells), CD3 (T cells) and myeloperoxidase (MPO; neutrophils). Cells were identified using a nuclear stain. Images acquired on a slide scanner were analysed using Definiens software and, following thresholding, positive cells identified. The number of positive cells per square millimeter was calculated and the fold-change in cell density from baseline was calculated. Data are mean ± SD (placebo, n = 3; treated, n = 6)

[1] = set-up: method as in ref 15 = [15]; 15. UCB data on file: UCB1446368-in vivo-rep; November 2011; UCB BioPharma sprl Belgium and DMPK10_062 UCB1446368 iv 1mpk male HW rat BDC; August 2010; UCB BioPharma sprl Belgium; conditions: preclinical animal studies; cited from earlier work
[2] = Study-2 single-dose pharmacokinetics (plasma); assay type: in vivo, human; conditions: for AUC(0-t) / half-life / Cmax / Tmax / AUC / MRT / Vd/F: human, plasma, oral; for Vd/F: read-out: Vz/F
Excerpt: These were phase I, randomised, double-blind, placebo-controlled studies designed to evaluate the safety, tolerability, PK and PD profiles of seletalisib following oral administration of single ascending doses and multiple ascending doses. Study-1 was a first-in-human, double-blind (sponsor-, investigator- and subject-blind) study that had two parts: Part-A evaluated seletalisib (single ascending doses) in healthy adults (including evaluation of food effects; Table 1); Part-B evaluated seletalisib (multiple ascending doses) in healthy adults and subjects with mild-to-moderate psoriasis. Study-2 was also a double-blind study of seletalisib (single and multiple ascending doses) in healthy subjects, which investigated higher doses.
Plasma concentrations of seletalisib were measured by high-performance liquid chromatography with tandem mass spectrometry (see Online Resource S1 for further details). The following PK parameters were determined in each study: AUC for seletalisib, maximum observed plasma concentration of seletalisib after a single dose (Cmax) and at steady-state (Cmaxss), time of occurrence of Cmax (tmax, obtained directly from the observed plasma concentration-time curves), minimum observed plasma concentration of seletalisib at steady-state immediately before the next dose would be administered (Ctrough), apparent terminal half-life, apparent volume of distribution after single dosing (Vz/F) and at steady-state (Vzss/F) and apparent total body clearance after single dosing (CL/F) and at steady-state (CLss/F). Accumulation factor based on AUC(0–24) [R(AUC)] and accumulation factor based on Cmax [R(Cmax)] were determined on multiple dose day 14. The following study-specific PK parameters were also determined: Study-1, total amount of seletalisib excreted in urine (Ae), renal clearance (CLr) and fraction of drug excreted in urine; Study-2, AUC(0–10) in BID dose groups, terminal elimination rate constant in plasma (λz), mean residence time (MRT) and linearity factor (LF [AUC(0–24)ss/AUC]).
Methods for the calculation of seletalisib PK parameters are detailed in Online Resource S1.
Seletalisib PK parameters were calculated via non-compartmental analysis methods from the individual concentration-time data using Phoenix WinNonlin version 6.2 (Certara, Princeton, NJ, USA). Urine (Study-1 only) and plasma PK parameters of seletalisib were reported for each subject and summarised by study part and dose group. Geometric mean and percentage geometric coefficient of variation (GeoCV%) were reported for all parameters except for tmax, which was reported using median and range. Dose proportionality for AUC and Cmax at Day_1 (Study-1 [Part-A & Part-B]; Study-2, single ascending dose-Day_1) and at steady state at Day_14 (Study-1 [Part-B]; Study-2, multiple ascending dose-Day_14) was examined via the power model and reported graphically. In Study-1, an assessment of food effect (fed versus fasted) was made for Cmax and AUC from the data for subjects who received the same dose in fed and fasted states in Part-A.

[3] = 15 mg, relative to placebo, lesional biopsies
[4] = Study-2 single dose, 30 mg QD cohort, geo mean (GeoCV%)
[5] = Study-2 single dose, 45 mg QD cohort, geo mean (GeoCV%)
[6] = Study-2 single dose, 60 mg QD cohort, geo mean (GeoCV%)
[7] = Study-2 single dose, 90 mg QD cohort, geo mean (GeoCV%)

Structure (SMILES): [O-][n+]1cccc(-c2nc3c(Cl)cccc3cc2[C@@H](Nc2ncnc3cccnc23)C(F)(F)F)c1 [Seletalisib, seletalisib]
- lesion severity score, total affected area (% BSA), lesion area, Physician’s Global Assessment (psoriatic lesional skin; 15 mg for 14 days): improvements in these parameters were seen in some of the six subjects
- numbers of dermal inflammatory cells (CD3+, CD11c+ and MPO+ cells) (psoriatic lesional skin; [3]): trend towards reduced numbers
- resident Langerhans cells (CD1a+ cells) (psoriatic lesional skin; [3]): return of the resident Langerhans cells
- route of elimination [1]: primarily eliminated by combined hepatic metabolism and biliary excretion
- CL/F [2, 4]: 2.65 (30.4) L/h
- CL/F [2, 5]: 2.61 (33.0) L/h
- CL/F [2, 6]: 2.19 (32.3) L/h
- CL/F [2, 7]: 2.58 (33.3) L/h
- AUC(0-t) ([2]; 30 mg, Study-2 single dose, 30 mg QD cohort, geo mean (GeoCV%), read-out: AUC(0–24)): 6490 ng·h/mL
- AUC(0-t) ([2]; 30 mg, Study-2 single dose, 30 mg QD cohort, geo mean (GeoCV%), read-out: AUC(0–t)): 10200 ng·h/mL
- AUC(0-t) ([2]; 30 mg, Study-2 single-dose part, 30 mg BID cohort, geo mean (GeoCV%), read-out: AUC(0–10)): 3500 ng·h/mL
- AUC(0-t) ([2]; 45 mg, Study-2 single dose, 45 mg QD cohort, geo mean (GeoCV%), read-out: AUC(0–24)): 9280 ng·h/mL
- AUC(0-t) ([2]; 45 mg, Study-2 single dose, 45 mg QD cohort, geo mean (GeoCV%), read-out: AUC(0–t)): 15100 ng·h/mL
- AUC(0-t) ([2]; 60 mg, Study-2 single dose, 60 mg QD cohort, geo mean (GeoCV%), read-out: AUC(0–24)): 16300 ng·h/mL
- AUC(0-t) ([2]; 60 mg, Study-2 single dose, 60 mg QD cohort, geo mean (GeoCV%), read-out: AUC(0–t)): 25100 ng·h/mL
- AUC(0-t) ([2]; 90 mg, Study-2 single dose, 90 mg QD cohort, geo mean (GeoCV%), read-out: AUC(0–24)): 19700 ng·h/mL
- AUC(0-t) ([2]; 90 mg, Study-2 single dose, 90 mg QD cohort, geo mean (GeoCV%), read-out: AUC(0–t)): 31200 ng·h/mL
- half-life ([2]; Study-2, range across dose groups, read-out: geometric mean t1/2): 18.1 to 22.4 h
- Cmax ([2]; Study-2, single dose, range across groups, read-out: geometric mean Cmax): 517 to 1510 ng/mL
- Tmax ([2]; Study-2, single dose, range across groups, read-out: median tmax): 3 to 4 h
- AUC [2, 4]: 11300 ng·h/mL
- MRT [2, 4]: 22.1 h
- Cmax ([2]; Study-2 single dose, 30 mg QD cohort, geo mean (GeoCV%), read-out: Cmax): 517 ng/mL
- Vd/F [2, 4]: 74.4 L
- half-life ([2]; Study-2 single dose, 30 mg QD cohort, geo mean (GeoCV%), read-out: t1/2 (converted)): 19.5 h
- Tmax ([2]; Study-2 single dose, 30 mg QD cohort, median (range), read-out: tmax): 4 h
- AUC [2, 5]: 17300 ng·h/mL
- MRT [2, 5]: 23 h
- Cmax ([2]; Study-2 single dose, 45 mg QD cohort, geo mean (GeoCV%), read-out: Cmax): 691 ng/mL
- Vd/F [2, 5]: 84.2 L
- half-life ([2]; Study-2 single dose, 45 mg QD cohort, geo mean (GeoCV%), read-out: t1/2 (converted)): 22.4 h
- Tmax ([2]; Study-2 single dose, 45 mg QD cohort, median (range), read-out: tmax): 4 h
- AUC [2, 6]: 27400 ng·h/mL
- MRT [2, 6]: 21.5 h
- Cmax ([2]; Study-2 single dose, 60 mg QD cohort, geo mean (GeoCV%), read-out: Cmax): 1250 ng/mL
- Vd/F [2, 6]: 57.2 L
- half-life ([2]; Study-2 single dose, 60 mg QD cohort, geo mean (GeoCV%), read-out: t1/2 (converted)): 18.1 h
- Tmax ([2]; Study-2 single dose, 60 mg QD cohort, median (range), read-out: tmax): 3 h
- AUC [2, 7]: 34900 ng·h/mL
- MRT [2, 7]: 22.4 h
- Cmax ([2]; Study-2 single dose, 90 mg QD cohort, geo mean (GeoCV%), read-out: Cmax): 1510 ng/mL
- Vd/F [2, 7]: 77.3 L
- half-life ([2]; Study-2 single dose, 90 mg QD cohort, geo mean (GeoCV%), read-out: t1/2 (converted)): 20.8 h
- Tmax ([2]; Study-2 single dose, 90 mg QD cohort, median (range), read-out: tmax): 4 h

Reference: paper PMC5384962, “First-in-human studies of seletalisib, an orally bioavailable small-molecule PI3Kδ inhibitor for the treatment of immune and inflammatory diseases” (European Journal of Clinical Pharmacology, 2017)
